Assays:
Assay type in all cases: cell-based, human
A2058 [1] = test: MTT assay (metabolic activity)
Protocol: (§1) Cell lines A2058 (human melanoma lymph node metastasis, cat. 91100402) from ECACC (Public Health England, Salisbury, UK) and BLM (human melanoma lung metastasis a gift from prof. K. Smetana, Institute of Anatomy, Charles University in Prague) were cultured in a medium consisting of high glucose Dulbecco’s Modified Eagle’s Medium (DMEM) and sodium pyruvate (GE Healthcare, Piscataway, NJ, USA). The growth medium was supplemented with a 10% fetal bovine serum (FBS) and antibiotic/antimycotic solution 1 × HyClone™ (GE Healthcare, Chicago, IL, USA). The MCF-10A (human mammary epithelial cells) cell line was cultured in a medium consisting of high glucose Dulbecco’s Modified Eagle’s Medium F12 (DMEM/F12) (Biosera, Kansas City, MO, USA). The growth medium was supplemented with a 10% FBS, antibiotic/antimycotic solution 1 × HyClone™ (GE Healthcare, Chicago, IL, USA), epidermal growth factor (EGF) (20 ng/mL final), hydrocortisone (0.5 μg/mL final) and insulin (10 μg/mL final) (Sigma-Aldrich Chemie, Steinheim, Germany). Cells were cultured in humidified air at 37 °C with atmosphere containing 5% CO2.
(§2) The half-maximal inhibitory concentration values (IC50) and metabolism inhibition of tested synthetic chalcone derivatives were determined by MTT (3-(4,5-di-methylthiazol-2-yl)2,5-diphenyltetrazolium bromide) colorimetric assay (Sigma-Aldrich Chemie, Steinheim, Germany). Tested cell lines were seeded at a density of 5 × 10^3 cells/well in 96-well culture plates. After 24 h, the tested chalcones in concentrations of 100, 50 and 10 μmol/L were added and incubation proceeded for the next 72 h. In the next step, 10 μL of MTT (5 mg/mL) was added to each well containing cells and incubated for another 4 h at 37 °C during which MTT was metabolized to insoluble formazan in cells. After 4 h, 100 μL of a 10% sodium dodecyl sulphate (SDS) was added to each well and another 24 h were allowed for the formazan crystals to dissolve. The metabolic activity of cells was evaluated by measuring the absorbance at wavelength 540 nm using the automated Cytation™ 3 Cell Imaging Multi-Mode Reader (Biotek, Winooski, VT, USA). Three independent analyses were performed.

BLM [2] = test: MTT assay (metabolic activity)
Protocol: as §1, §2

BLM melanoma cells = test: Flow cytometric analysis of caspase-3/7 activity; conditions: 1C 20 μmol/L, 24, 48 and 72 h
Protocol: (§3) The A2058 and BLM melanoma cells were seeded 1 × 10^6 in Petri dishes with complete growth medium and cultivated for 24 h. After cell cultivation, the A2058 cells were treated with chalcone 1C at 10 μmol/L concentration, BLM cells at 20 μmol/L concentration and both melanoma cell lines were treated with DMSO as the negative control at the same concentrations for 24, 48 and 72 h. Adherent and floating cells were harvested, pelleted by centrifugation at 1200 rpm for 5 min. Pellets were resuspended in washing buffer (PBS) and divided for a particular analysis. Afterwards, cells were prepared according to assay kit protocols or fixed with cold 4% paraformaldehyde (15 min) and permeabilized with 90% methanol (10 min on ice) with washing steps (PBS) and stained prior to analysis (Table 5) for 15 min in the dark at room temperature. Fluorescence was detected using a BD FACSCalibur^TM Flow Cytometer (Becton Dickinson, San Jose, CA, USA).

A2058 melanoma cells = test: Flow cytometric analysis of caspase-3/7 activity; conditions: A2058, 1C 10 μmol/L, 24, 48 and 72 h
Protocol: as §3

A2058 [3] = test: BrdU cell proliferation assay
Protocol: (§4) The BrdU Cell Proliferation Assay is based on the detection of BrdU (5-bromo-2′-deoxyuridine) incorporated into the newly synthesized DNA during the replication process in proliferating cells.
(§5) The A2058 (5 × 10^3/well) and BLM (5 × 10^3/well) melanoma cells were plated in a 96-well culture plate in 80 μL suitable medium. Twenty-four hours after cell seeding, different concentrations of the chalcone 1C were added ranging from 5–20 μmol/L. After 48 h of treatment, BrdU labelling solution was added to melanoma cells and incubated for another 24 h at 37 °C followed by fixation and incubation with anti-BrdU peroxidase conjugate solution for an additional 90 min in the dark at room temperature. Cells were then washed 3× with washing solution and incubated with TMB (tetramethylbenzidine) substrate solution (all Roche, Basel, Switzerland) for 5 to 30 min according to colour intensity. Finally, the stop solution (25 μL 1 M H2SO4) was added, and the incorporated BrdU was detected with an automated Cytation™ 3 Cell Imaging Multi-Mode Reader (Biotek, Winooski, VT, USA) at 450 nm. Three independent analyses were performed.

BLM [4] = test: BrdU cell proliferation assay
Protocol: as §4, §5

[5] = Homo sapiens, A2058, 72 h incubation
[6] = Homo sapiens, BLM, 72 h incubation

COc1cccc(OC)c1C(=O)/C=C/c1c2ccccc2nc2ccccc12 [Compound 1C, (2E)-3-(acridin-9-yl)-1-(2,6-dimethoxyphenyl)prop-2-en-1-one]
IC50 (A2058 [1]; [5]): 7.96 ± 0.38 µM | Selectivity index, A2058 (MTT) (A2058 [1]; MCF-10A vs A2058, calculated on the basis of MTT results): 4.6 | IC50 (BLM [2]; [6]): 17.9 ± 0.87 µM | Selectivity index, BLM (MTT) (BLM [2]; MCF-10A vs BLM, calculated on the basis of MTT results): 2.0 | Caspase-3/7 activity in apoptotic cells (BLM melanoma cells): significant activity | Caspase-3/7 activity in apoptotic cells (A2058 melanoma cells): significant activity | IC50 (A2058 [3]; [5]): 8.4 ± 0.05 µM | Selectivity index, A2058 (BrdU) (A2058 [3]; MCF-10A vs A2058, calculated on the basis of BrdU results): 3.9 | IC50 (BLM [4]; [6]): 16.51 ± 0.01 µM | Selectivity index, BLM (BrdU) (BLM [4]; MCF-10A vs BLM, calculated on the basis of BrdU results): 1.99

Source: PMC9603750, “Chalcone-Acridine Hybrid Suppresses Melanoma Cell Progression via G2/M Cell Cycle Arrest, DNA Damage, Apoptosis, and Modulation of MAP Kinases Activity” (International Journal of Molecular Sciences, 2022)
